The source of these data is patent US20150065709A1, “Aminoquinazoline Derivative And Use Thereof In Preparing Anti-Malignant Tumor Medicament” (METABOMICS, INC, priority 2012, published 2015).

Series [1] in a line: Long-term toxicity experiment (28 days) in dogs. Type of series: in vivo. The conditions noted are these: dogs, 5 mg/kg, 28 days; reaction of Afatinib group greater than compound Ie group. The procedure:
(§1) Experiment Animals: rats, male, 6-8 weeks of age, body weight: 180-250 g; dogs, male, about 24 months, body weight: 7-10 kg.
(§2) Preparation of sample: in rat's experiments the mixed formulation powder of the compound Ie was formulated into 0.1, 0.3 and 1 mg/mL homogeneous suspension for use; administration route: oral administration; […]. In dog's experiments the tablets of compound Ie were fed to dogs. […].
(§3) Sample collection: blood was collected at the time points of 1, 10, 20 and 28 days respectively, about 120-200 μL whole blood was collected from 3 animals at each time point. Blood was collected at 1 h, 4 h, 8 h and 24 h after administration.
(§4) Sample analysis: the collected samples were detected by LC-MS/MS, and the instrument model was SHIMADZU20 A-API4000.
(§5) Pharmacokinetic data analysis: the obtained plasma concentration data were fitted and calculated using WinNolin according to non-compartment model.

Series [2] is described as follows: Long-term toxicity experiment (28 days) in rats. Type of series: in vivo. The procedure:
as §1, §2, §3, §4, §5

The next series relates to BT474. Nature of the series: Inhibition of tumor cells, MTS method. It counts as cell-based. The settings on record: Homo sapiens, BT-474, 72 hours. The procedure:
(§6) (1) Compounds: in vitro studies the test compounds was dissolved in 100% DMSO and diluted until the final concentration of DMSO was 0.1%. The 0.1% (v/v) DMSO was added into culture medium as solvent control. 9 concentration gradients were tested and each gradient was repeated twice. (2) Tumor cell lines: the tumor cell lines were cultivated in RPMI10 culture medium containing 10% fetal calf serum in incubator at 37° C. in a 5% CO2 air incubator. The tested tumor cell lines were: BT474, MDA-MB-231, SK-Br-3, A431, H292, H1975, HCC827, A549, H1650 and H1734. (3) MTS method: cells were seeded into 96-well plate to give a density of about 3000 cells per well, and incubated overnight in a humidified incubator at 37° C. In the next day, the test compounds were added to the wells and further incubated for 72 hours. The cell activity was detected using MTS. IC50 was calculated (the concentration of a compound that is required for 50% inhibition of the cell growth versus the DMSO control group, using nonlinear regression analysis of software GraphPad Prism). […] In a 96-well plate, each test compound was tested at 9 dosage concentrations and each dosage was made in triplicate. Samples were added in 100 μL/well. Cell control and negative control wells contained diluents instead of compounds. Except the negative control well, 100 μL cell suspension of complete medium was added into each test well, wherein corresponding cell numbers were included to assure that the cells in cell control well just cover the bottom of the well as the required incubation time was reached. The plate was incubated in a CO2 incubator at 37° C. for 48 hours. The liquid in test wells was removed by pipetting. 100 μL CCK-8 (Cell counting Kit-8, purchased from DOJINDO Molecular Technologies) detection liquid (containing 10% CCK-8, 5% FBS corresponding medium) was added into each test well, then the plate was incubated in a CO2 incubator under at 37° C. for 3 hours. OD value was detected by ELIASA at A450 nm. Cell viability percentage (%)=(O.D. test compound-O.D. blank)/(O.D. control-O.D. blank)×100. Mean value was calculated for each 3 repeated wells, and IC50 was calculated using nonlinear regression (fitted curve) data analysis method.

Another series concerns H1734. Nature of the series: Inhibition of tumor cells, MTS method. Type of series: cell-based. The conditions noted are these: Homo sapiens, NCI-H1734, 72 hours. The procedure: as §6
In general terms: Formazan colour is commonly taken as a measure of viable cells.

For a further series, the system named is SK-Br-3. The series can be described thus: Inhibition of tumor cells, MTS method. Type of series: cell-based. The conditions noted are these: Homo sapiens, 72 hours. The procedure: as §6
Another series relates to A431. Nature of the series: Inhibition of tumor cells, MTS method. It counts as cell-based. The settings on record: Homo sapiens, A-431, 72 hours. The procedure:
as §6

For another series, the system named is HCC827. The series can be described thus: Inhibition of tumor cells, MTS method. Type of series: cell-based. The conditions noted are these: Homo sapiens, 72 hours. The procedure: as §6
A further series has as its system A549. Nature of the series: Inhibition of tumor cells, MTS method. Type of series: cell-based. The conditions noted are these: Homo sapiens, 72 hours. The procedure: as §6
The next series has as its system H1650. The series can be described thus: Inhibition of tumor cells, MTS method. Type of series: cell-based. The settings on record: Homo sapiens, NCI-H1650, 72 hours. The procedure:
as §6

A further series has as its system H1975. Nature of the series: Inhibition of tumor cells, MTS method. Type of series: cell-based. The settings on record: Homo sapiens, NCI-H1975, 72 hours. The procedure:
as §6

The test system of a further series is H292. The series can be described thus: Inhibition of tumor cells, MTS method. Type of series: cell-based. The settings on record: Homo sapiens, NCI-H292, 72 hours. The procedure: as §6
Another series has as its target EGFR kinases (Homo sapiens, UniProt P00533). The series can be described thus: Reversible inhibition test of enzyme activity of EGFR kinases. Type of series: biochemical.
For another series, the target named is HER2 (Homo sapiens, UniProt P04626). Nature of the series: Caliper Mobility Shift Assay, inhibition of HER2 kinase activity. Type of series: biochemical.
Sequence of HER2 (P04626 23-1255): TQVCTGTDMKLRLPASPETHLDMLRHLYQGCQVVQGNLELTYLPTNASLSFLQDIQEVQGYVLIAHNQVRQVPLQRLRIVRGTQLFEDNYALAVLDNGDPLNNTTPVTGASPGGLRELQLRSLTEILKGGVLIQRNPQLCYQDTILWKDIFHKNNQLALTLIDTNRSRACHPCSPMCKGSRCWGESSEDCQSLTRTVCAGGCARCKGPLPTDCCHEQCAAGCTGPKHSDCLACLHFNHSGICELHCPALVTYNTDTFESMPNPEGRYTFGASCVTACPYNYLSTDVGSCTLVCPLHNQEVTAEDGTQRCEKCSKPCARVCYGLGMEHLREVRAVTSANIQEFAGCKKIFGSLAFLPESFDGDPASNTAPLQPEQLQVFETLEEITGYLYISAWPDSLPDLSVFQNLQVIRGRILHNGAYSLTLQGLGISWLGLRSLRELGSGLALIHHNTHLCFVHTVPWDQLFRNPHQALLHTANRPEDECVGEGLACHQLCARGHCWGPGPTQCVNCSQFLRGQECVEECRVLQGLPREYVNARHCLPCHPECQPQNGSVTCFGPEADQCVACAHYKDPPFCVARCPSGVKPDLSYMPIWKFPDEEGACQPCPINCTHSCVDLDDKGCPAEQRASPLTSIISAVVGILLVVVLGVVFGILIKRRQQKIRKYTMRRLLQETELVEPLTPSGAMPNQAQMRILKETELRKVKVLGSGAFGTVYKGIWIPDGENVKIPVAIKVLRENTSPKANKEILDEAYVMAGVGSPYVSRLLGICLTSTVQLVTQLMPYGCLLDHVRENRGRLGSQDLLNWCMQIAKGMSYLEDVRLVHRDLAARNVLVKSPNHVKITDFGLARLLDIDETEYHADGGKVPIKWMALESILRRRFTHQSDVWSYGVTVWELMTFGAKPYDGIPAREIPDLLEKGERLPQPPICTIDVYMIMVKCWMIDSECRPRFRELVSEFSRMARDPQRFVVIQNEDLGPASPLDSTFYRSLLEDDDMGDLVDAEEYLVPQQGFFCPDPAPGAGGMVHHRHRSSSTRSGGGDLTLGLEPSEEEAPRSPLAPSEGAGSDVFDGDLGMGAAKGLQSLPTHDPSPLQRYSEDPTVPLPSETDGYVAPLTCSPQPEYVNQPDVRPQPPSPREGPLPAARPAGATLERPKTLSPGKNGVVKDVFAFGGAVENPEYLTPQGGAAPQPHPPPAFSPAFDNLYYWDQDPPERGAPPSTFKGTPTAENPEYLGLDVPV
The nature of series [3]: Pharmacokinetic experiments in CD-1 mice. Type of series: in vivo. The conditions noted are these: male, mouse, plasma; for half-life: read-out: Terminal t1/2 (converted); for Vd: read-out: Vss. The procedure: Experiment animals: CD-1 mice, male, 6-7 weeks of age; body weight: 20-25 g; Preparation of samples: the test compounds respectively were formulated to 0.2 mg/mL (for intravenous administration) and 1.0 mg/mL (for oral administration) for use. Administration routes: oral administration/intravenous administration. Amount and frequency of administration: 5 mL/kg for single administration.
Sample collection: blood was collected at the time points of 5 min, 15 min, 30 min, 1 h, 2 h, 4 h, 8 h and 24 h, about […] whole blood was collected from 3 animals at each time point. All of the animals were euthanized after the experiments.
Sample analysis: the collected samples were detected by LC-MS/MS, and the instrument model is SHIMADZU20A-API4000.
as §5

In a further series the target is EGFR (Homo sapiens, UniProt P00533). The series can be described thus: Caliper Mobility Shift Assay, inhibition of EGFR kinase activity. Type of series: biochemical.
Sequence of EGFR (P00533 25-1210): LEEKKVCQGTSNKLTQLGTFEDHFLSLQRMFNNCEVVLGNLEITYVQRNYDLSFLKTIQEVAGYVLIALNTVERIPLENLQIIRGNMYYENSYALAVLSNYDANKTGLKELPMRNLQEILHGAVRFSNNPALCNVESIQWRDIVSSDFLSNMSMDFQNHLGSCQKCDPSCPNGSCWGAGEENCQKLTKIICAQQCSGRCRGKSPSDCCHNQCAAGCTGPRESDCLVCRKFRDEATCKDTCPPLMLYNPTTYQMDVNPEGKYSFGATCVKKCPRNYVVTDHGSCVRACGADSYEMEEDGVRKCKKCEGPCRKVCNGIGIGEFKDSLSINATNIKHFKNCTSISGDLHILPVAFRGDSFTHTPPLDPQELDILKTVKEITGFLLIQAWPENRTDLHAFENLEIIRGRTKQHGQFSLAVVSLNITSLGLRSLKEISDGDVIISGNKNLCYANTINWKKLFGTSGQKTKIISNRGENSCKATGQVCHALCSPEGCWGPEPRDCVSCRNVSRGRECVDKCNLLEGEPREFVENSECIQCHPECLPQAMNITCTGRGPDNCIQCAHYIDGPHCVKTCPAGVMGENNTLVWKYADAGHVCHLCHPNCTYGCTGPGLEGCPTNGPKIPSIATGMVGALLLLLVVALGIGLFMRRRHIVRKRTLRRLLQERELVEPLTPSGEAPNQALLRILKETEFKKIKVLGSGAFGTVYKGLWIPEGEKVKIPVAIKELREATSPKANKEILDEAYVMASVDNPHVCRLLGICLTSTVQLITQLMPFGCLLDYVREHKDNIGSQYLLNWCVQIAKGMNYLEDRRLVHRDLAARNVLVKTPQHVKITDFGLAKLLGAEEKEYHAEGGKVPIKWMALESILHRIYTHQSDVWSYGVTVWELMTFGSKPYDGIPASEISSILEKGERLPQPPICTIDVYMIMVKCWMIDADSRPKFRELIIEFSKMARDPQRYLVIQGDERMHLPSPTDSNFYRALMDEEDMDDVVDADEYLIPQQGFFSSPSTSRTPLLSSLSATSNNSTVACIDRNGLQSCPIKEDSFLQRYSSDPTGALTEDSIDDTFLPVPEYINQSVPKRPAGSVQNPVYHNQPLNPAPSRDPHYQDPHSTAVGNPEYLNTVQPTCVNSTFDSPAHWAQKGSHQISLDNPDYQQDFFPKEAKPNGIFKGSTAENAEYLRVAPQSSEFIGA
Another series has as its system MDA-MB-231. Nature of the series: Inhibition of tumor cells, MTS method. It counts as cell-based. The conditions noted are these: Homo sapiens, 72 hours. The procedure:
as §6

A word on the IC50: it is the concentration at which inhibition is half-maximal. One may read the AUC(0-inf) as total exposure, with the tail of the curve extrapolated. Lower therefore signals less exposure. Usually AUC(0-t) stands for the area under the concentration-time curve up to a stated or last time point. High values mean high exposure, low ones low exposure. A word on the MRT inf: it is a mean duration of stay, worked out from the concentration-time curve. For orientation: clearance means a measure of how efficiently the substance is removed, as volume per time. High values mean efficient removal, low ones inefficient removal. As a reminder, the Cmax is the maximum level reached in the sampled fluid or tissue. Broadly, the Tmax is the time at which the peak concentration occurs.

Like-named read-outs stand apart in the source and are kept apart here.

Sequence of EGFR kinases (P00533 25-1210): as above

In the case of `CN(C)C/C=C/C(=O)Nc1cc2c(Nc3ccc(F)c(Cl)c3)ncnc2cc1O[C@H]1CCOC1` [Afatinib, reference compound], the toxicity reaction result in series [1] is “toxicity reactions”; in series [2] (rat, in vivo, 10 mg/kg), “very significant toxicity reaction”; in [2] (rats, 5 mg/kg, 28 days), “significant toxicity reaction”. Besides, in series [2] (rat, in vivo, 10 mg/kg), the “weight during recovery phase after drug withdrawal” value is given as “reduced weight during the recovery phase”.
Turning to `CN(C/C=C/C(=O)Nc1cc2c(Nc3ccc(F)c(Cl)c3)ncnc2cc1OC1CCOC1)Cc1ccccc1` (stereo not drawn) [Compound Ia], the IC50 in the series with BT474 amounted to 0.264 µM; in the series with H1734 it was 1.34 µM; in the series with SK-Br-3, 0.42 µM; with A431 it was 4.91 µM; in the series with HCC827 it was 0.015 µM; in the series on A549, 5.93 µM. The IC50 in the series with H1650 is 6.57 µM; in the series with H1975, 0.882 µM; with H292, 0.873 µM; at HER2 it was 13 nM; at EGFR it was 2 nM. For the same molecule, at EGFR kinases, the “reversibility of inhibition of EGFR kinases” value is “irreversibility”. The AUC(0-inf) in series [3] (1 mg/kg Intravenous Injection) worked out at 110 ng·h/mL; in series [3] (5 mg/kg Oral Administration), 140 ng·h/mL. Further, the area under the curve AUC(0-t) in series [3] (1 mg/kg Intravenous Injection) turned out to be 104 ng·h/mL; in series [3] (5 mg/kg Oral Administration) it was 91.4 ng·h/mL. This molecule returned an MRT inf in series [3] (1 mg/kg Intravenous Injection) of 0.616 h. Further, the clearance in [3] (1 mg/kg Intravenous Injection) was 153 mL/min/kg. The half-life in [3] (1 mg/kg Intravenous Injection) is 0.729 h; in series [3] (5 mg/kg Oral Administration), 1.76 h. In addition, in series [3] (1 mg/kg Intravenous Injection), the Vd stood at 5.47 L/kg. In [3] (5 mg/kg Oral Administration), this molecule displayed a Cmax of 31.4 ng/mL. Also, the Tmax in series [3] (5 mg/kg Oral Administration) was 1.17 h.
With `O=C(/C=C/c1ccccn1)Nc1cc2c(Nc3ccc(F)c(Cl)c3)ncnc2cc1OC1CCOC1` (stereo not drawn) [Compound Ib], the IC50 with BT474 turned out to be 3.18 µM; in the series with SK-Br-3 it was 3.1 µM; in the series on A431 it was 0.899 µM; with HCC827, 0.157 µM; with MDA-MB-231, 4.01 µM; with H1975, 30.8 µM. The figures for the IC50 in the series on H292, at HER2 and at EGFR were 0.502 µM, 90 nM and 3.9 nM, respectively.
As to `COc1cc2ncnc(Nc3ccc(F)c(Cl)c3)c2cc1NC(=O)/C=C/CN(C)Cc1ccccc1` [Compound Ic], the IC50 with BT474 is 0.278 µM; in the series on H1734 it was 5.26 µM; in the series with SK-Br-3, 0.418 µM; in the series on A431, 13 µM; in the series on HCC827, 0.012 µM; in the series on A549, over 10 µM. In addition, the IC50 in the series on MDA-MB-231 was 13.9 µM; in the series with H1650, over 10 µM; in the series on H1975 it was 0.715 µM; in the series on H292, 0.727 µM; at HER2 it was 15 nM; at EGFR, 1.3 nM. Besides, the AUC(0-inf) in [3] (1 mg/kg Intravenous Injection) was found to be 206 ng·h/mL. The AUC(0-t) in series [3] (1 mg/kg Intravenous Injection) turned out to be 163 ng·h/mL; in series [3] (5 mg/kg Oral Administration), 283 ng·h/mL. Moreover, in [3] (1 mg/kg Intravenous Injection), the MRT inf is 3.01 h. The clearance in [3] (1 mg/kg Intravenous Injection) is 87.2 mL/min/kg. Besides, the half-life in series [3] (1 mg/kg Intravenous Injection) is 2.63 h. Also, the Vd in series [3] (1 mg/kg Intravenous Injection) was 14.7 L/kg. The concentration in series [3] (5 mg/kg Oral Administration) peaked (Cmax) at 66.7 ng/mL. In addition, the Tmax in series [3] (5 mg/kg Oral Administration) came out at 2 h.
For the molecule `COc1cc2ncnc(Nc3ccc(F)c(Cl)c3)c2cc1NC(=O)/C=C/c1ccccn1` [Compound Id], the IC50 in the series with BT474 was 2.14 µM; in the series with SK-Br-3, 0.155 µM; in the series with HCC827, 0.04 µM; in the series on H292, 44.1 µM; on HER2 it was over 10000 nM; at EGFR, 5.1 nM.
